Test results reported in the NIST ThermoML archive (doi:10.1016/j.jct.2005.08.018).
Numbers after ± are expanded uncertainties.

What was measured:
[1] = 298.15 K; 101 kPa; Liquid
[2] = mn = molality of the nth substance listed, in mol/kg; conditions: 298.15 K, 101 kPa, Liquid

**Q.** Which mass density [1] does the source give for `c1ccccc1` [benzene] here?
**A.** Its mass density is 873.71 ± 0.78 kg/m3.

**Q.** And the speed of sound [1]?
**A.** Its speed of sound is 1298.2 ± 2.8 m/s.

**Q.** What does the source list for `c1ccccc1` [benzene] + CCCC[N+](CCCC)(CCCC)CCCC.[Br-]?
**A.** mass density ([2]; m2 = 0): 873.71 ± 0.78 kg/m3; speed of sound ([2]; m2 = 0): 1298.2 ± 2.8 m/s

**Q.** Which results are given for `CCCC[N+](CCCC)(CCCC)CCCC.[Br-]` [tetrabutylammonium bromide] + c1ccccc1?
**A.** mass density ([2]; m1 = 0.0154): 874.64 ± 0.78 kg/m3; speed of sound ([2]; m1 = 0.0154): 1298.6 ± 2.8 m/s; mass density ([2]; m1 = 0.0485): 876.48 ± 0.78 kg/m3; speed of sound ([2]; m1 = 0.0485): 1299.4 ± 2.8 m/s; mass density ([2]; m1 = 0.0662): 877.4 ± 0.77 kg/m3; speed of sound ([2]; m1 = 0.0662): 1300.6 ± 2.8 m/s; mass density ([2]; m1 = 0.0827): 878.36 ± 0.77 kg/m3; speed of sound ([2]; m1 = 0.0827): 1300.8 ± 2.8 m/s; mass density ([2]; m1 = 0.1724): 883.19 ± 0.76 kg/m3; speed of sound ([2]; m1 = 0.1724): 1301.4 ± 2.8 m/s; mass density ([2]; m1 = 0.3622): 893.1 ± 0.74 kg/m3; speed of sound ([2]; m1 = 0.3622): 1310.1 ± 2.8 m/s; mass density ([2]; m1 = 0.5773): 903.19 ± 0.72 kg/m3; speed of sound ([2]; m1 = 0.5773): 1316.4 ± 2.8 m/s; mass density ([2]; m1 = 0.8062): 913.08 ± 0.7 kg/m3; speed of sound ([2]; m1 = 0.8062): 1324.6 ± 2.9 m/s

**Q.** What does the source list for `ClC(Cl)(Cl)Cl` [tetrachloromethane]?
**A.** mass density [1]: 1584.35 ± 2.2 kg/m3; speed of sound [1]: 921.7 ± 2.4 m/s

**Q.** What does the source list for `ClC(Cl)(Cl)Cl` [tetrachloromethane] + CCCC[N+](CCCC)(CCCC)CCCC.[Br-]?
**A.** mass density ([2]; m2 = 0): 1584.35 ± 2.2 kg/m3; speed of sound ([2]; m2 = 0): 921.7 ± 2.4 m/s; mass density ([2]; m2 = 0.0289): 1578.53 ± 2.2 kg/m3; speed of sound ([2]; m2 = 0.0289): 926.4 ± 2.4 m/s; mass density ([2]; m2 = 0.0459): 1575.17 ± 2.2 kg/m3; speed of sound ([2]; m2 = 0.0459): 929.4 ± 2.4 m/s; mass density ([2]; m2 = 0.0609): 1572.21 ± 2.2 kg/m3; speed of sound ([2]; m2 = 0.0609): 931.7 ± 2.4 m/s; mass density ([2]; m2 = 0.0759): 1569.3 ± 2.2 kg/m3; speed of sound ([2]; m2 = 0.0759): 933.7 ± 2.4 m/s; mass density ([2]; m2 = 0.1041): 1563.88 ± 2.2 kg/m3; speed of sound ([2]; m2 = 0.1041): 939.5 ± 2.4 m/s; mass density ([2]; m2 = 0.3475): 1520.79 ± 2 kg/m3; speed of sound ([2]; m2 = 0.3475): 982 ± 2.4 m/s; mass density ([2]; m2 = 0.5626): 1488.36 ± 1.9 kg/m3; speed of sound ([2]; m2 = 0.5626): 1017.5 ± 2.5 m/s; mass density ([2]; m2 = 0.8165): 1456.84 ± 1.8 kg/m3; speed of sound ([2]; m2 = 0.8165): 1057.6 ± 2.5 m/s
